Experimental data taken from patent publication US11124554B2, “Modified ligand-gated ion channels and methods of use” (Howard Hughes Medical Institute, priority 2016, dated 2021).
Entries after “also recorded” stand apart in the source; their conditions may differ.

Legend:
α7^L131A-GlyR = molecular target: T1, α7^L131A-GlyR (Homo sapiens, UniProt P36544, L131A); experiment: Agonist potency at chimeric channel (Table 9); format: cell-based
T1 construct: expressed in transfected cells

α7^L131G-5HT3 HC = experiment: Agonist potency at chimeric channel (Table 9); format: cell-based, human
α7^L131G,Q139L-GlyR = molecular target: T2, α7^L131G,Q139L-GlyR (Homo sapiens, UniProt P36544, L131G/Q139L); experiment: Agonist potency at chimeric channel (Table 9); format: cell-based
T2 construct: expressed in transfected cells
T2 sequence (P36544 with tags, fused parts or gaps L131G/Q139L): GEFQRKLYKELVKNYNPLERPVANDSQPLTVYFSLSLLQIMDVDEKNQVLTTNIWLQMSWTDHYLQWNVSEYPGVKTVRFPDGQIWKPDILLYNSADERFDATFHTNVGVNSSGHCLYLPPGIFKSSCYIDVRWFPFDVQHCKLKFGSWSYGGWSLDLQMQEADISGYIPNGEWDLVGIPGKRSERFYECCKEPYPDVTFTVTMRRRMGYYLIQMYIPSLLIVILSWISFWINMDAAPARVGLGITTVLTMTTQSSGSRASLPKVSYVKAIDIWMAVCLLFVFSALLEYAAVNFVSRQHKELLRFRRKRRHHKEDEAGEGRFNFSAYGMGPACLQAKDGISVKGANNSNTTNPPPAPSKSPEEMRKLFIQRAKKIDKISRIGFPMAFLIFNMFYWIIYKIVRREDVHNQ

α7^L131G,Y217F-GlyR = molecular target: T3, α7^L131G,Y217F-GlyR (Homo sapiens, UniProt P36544, L131G/Y217F); experiment: Agonist potency at chimeric channel (Table 9); format: cell-based
T3 construct: expressed in transfected cells
T3 sequence (P36544 with tags, fused parts or gaps L131G/Y217F): as the sequence (P36544 with tags, fused parts or gaps L131G/Q139L) above, with L117Q, Y195F counted along it

α7^Q79S,L131G-GlyR = molecular target: T4, α7^Q79S,L131G-GlyR (Homo sapiens, UniProt P36544, L131G/Q79S); experiment: Agonist potency at chimeric channel (Table 9); format: cell-based
T4 construct: expressed in transfected cells
T4 sequence (P36544 with tags, fused parts or gaps Q79S/L131G): as the sequence (P36544 with tags, fused parts or gaps L131G/Q139L) above, with Q57S, L117Q counted along it

[1] = molecular target: T5, α7^L131G,Q139L,Y217F-GlyR (Homo sapiens, UniProt P36544, L131G/Q139L/Y217F); experiment: cell-based; format: cell-based
T5 construct: expressed in transfected cells
T5 sequence (P36544 with tags, fused parts or gaps L131G/Q139L/Y217F): as the sequence (P36544 with tags, fused parts or gaps L131G/Q139L) above, with Y195F counted along it

α7^Q79S,L131G,Q139L-GlyR = molecular target: T6, α7^Q79S,L131G,Q139L-GlyR (Homo sapiens, UniProt P36544, L131G/Q139L/Q79S); experiment: cell-based; format: cell-based
T6 construct: expressed in transfected cells
T6 sequence (P36544 with tags, fused parts or gaps Q79S/L131G/Q139L): as the sequence (P36544 with tags, fused parts or gaps L131G/Q139L) above, with Q57S counted along it

[2] = molecular target: T7, α7^L131G,Q139L,Y217F-5HT3 HC (Homo sapiens, UniProt P36544, L131G/M226I/Q139L/T225I/Y217F); experiment: Agonist potency at chimeric channel (Table 9); format: cell-based; conditions: α7^L131G,Q139L,Y217F-5HT3 HC
T7 construct: expressed in transfected cells
T7 sequence (P36544 with tags, fused parts or gaps L131G/Q139L/Y217F/T225I/M226I limits assumed): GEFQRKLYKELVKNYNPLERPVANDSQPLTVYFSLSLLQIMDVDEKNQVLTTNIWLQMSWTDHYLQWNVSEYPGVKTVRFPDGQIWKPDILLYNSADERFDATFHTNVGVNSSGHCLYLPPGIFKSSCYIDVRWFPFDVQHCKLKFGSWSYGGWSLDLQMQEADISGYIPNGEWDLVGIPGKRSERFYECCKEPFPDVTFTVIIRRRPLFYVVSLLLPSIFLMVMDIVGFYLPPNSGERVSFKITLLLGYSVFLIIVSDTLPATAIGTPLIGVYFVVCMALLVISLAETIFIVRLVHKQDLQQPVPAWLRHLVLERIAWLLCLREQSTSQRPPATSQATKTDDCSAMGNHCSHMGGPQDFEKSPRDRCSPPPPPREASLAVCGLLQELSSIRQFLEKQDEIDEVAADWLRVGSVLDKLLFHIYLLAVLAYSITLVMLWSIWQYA

[3] = tested on: mouse cortical neurons transfected with α7^L131G,Q139L,Y217F-GlyR; experiment: Action potential firing of transfected cortical neurons; format: cell-based; conditions: 10 nM; even with >6-fold greater injected current
Source text: FIGS. 9A-9D show activity of agonists on chimeric LGICs with a L131G mutation. FIG. 9A) A graph of EC50s for L131 LBD mutants against known agonists normalized to the unmodified α7-GlyR chimeric channel (log scale). […] Unmod.: unmodified α7-GlyR chimeric LGIC. FIG. 9D) Action potentials of a cortical neuron from a mouse brain transduced with α7^L131G,Q139L,Y217F-GlyR chimeric LGIC. […] After washout (WASH) of tropisetron, neuron firing is restored.
DNA plasmids containing nucleic acids encoding a α7L131G,Q139L,Y217F-GlyR chimeric LGICs were transfected into mouse cortical neurons. […] Neuron activity was silenced by application of low concentration of agonist (FIG. 9C).

T1 sequence (P36544 with tags, fused parts or gaps L131A): as the sequence (P36544 with tags, fused parts or gaps L131G/Q139L) above, with G109A, L117Q counted along it

c1cnc2cc3c(cc2n1)[C@@H]1CNC[C@H]3C1 [Varenicline]
potency enhancement (α7^L131A-GlyR): 8 fold
potency enhancement (α7^L131G-5HT3 HC): 16 fold
potency enhancement over α7-GlyR (α7^L131G,Q139L-GlyR): 21 fold
potency enhancement over α7-GlyR (α7^L131G,Y217F-GlyR): 21 fold
improved potency over α7-GlyR (α7^Q79S,L131G-GlyR): 89 fold
improvement in potency over α7-GlyR [1]: 387 fold
improved potency over α7-GlyR (α7^Q79S,L131G,Q139L-GlyR): 31 fold
improved potency over a7-5HT3 [2]: 131 fold
suppression of action potential firing [3]: silenced; also recorded: potently suppressed
